This experiment addresses T1, Oxysterols receptor LXR-beta (Homo sapiens) (UniProt P55055).
T1 sequence (whole entry): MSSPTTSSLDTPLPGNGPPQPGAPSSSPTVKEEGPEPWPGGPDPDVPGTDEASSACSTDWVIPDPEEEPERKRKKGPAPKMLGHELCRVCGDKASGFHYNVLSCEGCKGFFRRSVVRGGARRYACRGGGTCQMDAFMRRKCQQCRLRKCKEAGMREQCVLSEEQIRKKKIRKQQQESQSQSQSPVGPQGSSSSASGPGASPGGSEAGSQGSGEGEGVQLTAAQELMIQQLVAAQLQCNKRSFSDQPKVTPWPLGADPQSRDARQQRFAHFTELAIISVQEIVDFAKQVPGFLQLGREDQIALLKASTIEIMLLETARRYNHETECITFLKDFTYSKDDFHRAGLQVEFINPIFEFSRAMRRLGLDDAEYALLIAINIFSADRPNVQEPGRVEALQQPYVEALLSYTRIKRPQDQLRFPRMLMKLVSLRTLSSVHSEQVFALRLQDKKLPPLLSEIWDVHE
In words: Agonist activity at human LXRbeta expressed in CV1 cells after 20 hrs by luciferase reporter co-transfection assay relative to control. Type of experiment: cell-based. As to conditions: CV-1.
Regarding `Cc1nc(C(F)(F)F)cn1-c1ccc(-c2cc(F)c(CO)c(S(C)(=O)=O)c2)cc1-c1nc(C(C)C)oc1-c1ccc(OC(F)(F)F)cc1`, the Efficacy worked out at 75%.

Compound `Cc1nc(C(F)(F)F)cn1-c1c(F)cc(-c2cccc(S(C)(=O)=O)c2)cc1-n1nncc1-c1ccc(Cl)cc1` displayed an Efficacy of 85%.

Compound `Cc1nc(C(F)(F)F)c(Cl)n1-c1ccc(-c2cc(F)c(CO)c(S(C)(=O)=O)c2)cc1-n1nncc1-c1ccc(OC(F)(F)F)cc1` showed an Efficacy of 116%.

For the compound `Cc1nc(C(F)(F)F)cn1-c1ccc(-c2cccc(S(C)(=O)=O)c2)cc1-n1nncc1Cc1cccc(Cl)c1`, the Efficacy was determined as 100%.

The values above are taken from ChEMBL document CHEMBL3352733, “Liver x receptor agonists for the treatment of coronary heart disease and other disorders” (ACS Med Chem Lett, 2014).
